Numbers after ± are expanded uncertainties.
Assay: xn = mol fraction of the nth substance listed
Settings: 100 kPa, Liquid; for viscosity: Concentric cylinders viscometry; for mass density: Vibrating tube method

O=C1CCCCC1 [cyclohexanone] + CCCCCCCCCCO
Settings	mass density [kg/m3]	viscosity [mPa·s]
293.15 K, x1 = 0.0807	834.5 ± 20	12.23 ± 0.62
293.15 K, x1 = 0.1613	840 ± 20	10.39 ± 0.52
293.15 K, x1 = 0.2387	845.6 ± 20	8.73 ± 0.44
293.15 K, x1 = 0.3519	855.1 ± 20	6.64 ± 0.34
293.15 K, x1 = 0.4407	863.4 ± 20	5.35 ± 0.27
293.15 K, x1 = 0.5568	875.9 ± 20	3.94 ± 0.2
293.15 K, x1 = 0.6517	887.7 ± 20	3.08 ± 0.16
293.15 K, x1 = 0.7412	900.4 ± 20	2.54 ± 0.13
293.15 K, x1 = 0.8518	918.6 ± 20	2.22 ± 0.11
293.15 K, x1 = 0.9441	936.5 ± 20	2.17 ± 0.11
293.15 K, x1 = 1	948.8 ± 20	2.3 ± 0.12
298.15 K, x1 = 0.0807	830.9 ± 20	10 ± 0.5
298.15 K, x1 = 0.1613	836.4 ± 20	8.43 ± 0.42
298.15 K, x1 = 0.2387	841.8 ± 20	7.18 ± 0.36
298.15 K, x1 = 0.3519	851 ± 20	5.67 ± 0.29
298.15 K, x1 = 0.4407	859.2 ± 20	4.69 ± 0.24
298.15 K, x1 = 0.5568	871.4 ± 20	3.56 ± 0.18
298.15 K, x1 = 0.6517	883 ± 20	2.87 ± 0.15
298.15 K, x1 = 0.7412	895.4 ± 20	2.43 ± 0.12
298.15 K, x1 = 0.8518	913.3 ± 20	2.13 ± 0.11
298.15 K, x1 = 0.9441	930.9 ± 20	2.08 ± 0.11
298.15 K, x1 = 1	943.1 ± 20	2.09 ± 0.11
303.15 K, x1 = 0.0807	827.4 ± 20	8.39 ± 0.42
303.15 K, x1 = 0.1613	832.6 ± 20	7.21 ± 0.36
303.15 K, x1 = 0.2387	838.1 ± 20	6.19 ± 0.31
303.15 K, x1 = 0.3519	847.2 ± 20	4.87 ± 0.25
303.15 K, x1 = 0.4407	855.2 ± 20	4.04 ± 0.2
303.15 K, x1 = 0.5568	867.3 ± 20	3.16 ± 0.16
303.15 K, x1 = 0.6517	878.7 ± 20	2.6 ± 0.13
303.15 K, x1 = 0.7412	891 ± 20	2.23 ± 0.11
303.15 K, x1 = 0.8518	908.7 ± 20	1.97 ± 0.1
303.15 K, x1 = 0.9441	926.1 ± 20	1.89 ± 0.1
303.15 K, x1 = 1	938.2 ± 20	1.91 ± 0.1
308.15 K, x1 = 0.0807	823.9 ± 20	7.09 ± 0.36
308.15 K, x1 = 0.1613	829.1 ± 20	6.14 ± 0.31
308.15 K, x1 = 0.2387	834.5 ± 20	5.38 ± 0.27
308.15 K, x1 = 0.3519	843.4 ± 20	4.37 ± 0.22
308.15 K, x1 = 0.4407	851.4 ± 20	3.69 ± 0.19
308.15 K, x1 = 0.5568	863.3 ± 20	2.94 ± 0.15
308.15 K, x1 = 0.6517	874.6 ± 20	2.45 ± 0.12
308.15 K, x1 = 0.7412	886.7 ± 20	2.11 ± 0.11
308.15 K, x1 = 0.8518	904.2 ± 20	1.84 ± 0.09
308.15 K, x1 = 0.9441	921.5 ± 20	1.73 ± 0.09
308.15 K, x1 = 1	933.5 ± 20	1.75 ± 0.09
313.15 K, x1 = 0.0807	820.4 ± 20	5.99 ± 0.3
313.15 K, x1 = 0.1613	825.5 ± 20	5.26 ± 0.26
313.15 K, x1 = 0.2387	830.8 ± 20	4.6 ± 0.23
313.15 K, x1 = 0.3519	839.6 ± 20	3.75 ± 0.19
313.15 K, x1 = 0.4407	847.4 ± 20	3.17 ± 0.16
313.15 K, x1 = 0.5568	859.2 ± 20	2.6 ± 0.13
313.15 K, x1 = 0.6517	870.3 ± 20	2.21 ± 0.11
313.15 K, x1 = 0.7412	882.4 ± 20	1.92 ± 0.1
313.15 K, x1 = 0.8518	899.7 ± 20	1.7 ± 0.09
313.15 K, x1 = 0.9441	916.9 ± 20	1.57 ± 0.08
313.15 K, x1 = 1	928.8 ± 20	1.6 ± 0.08
318.15 K, x1 = 0.0807	816.9 ± 20	5.08 ± 0.26
318.15 K, x1 = 0.1613	821.9 ± 20	4.45 ± 0.22
318.15 K, x1 = 0.2387	827.2 ± 20	3.86 ± 0.19
318.15 K, x1 = 0.3519	835.9 ± 20	3.15 ± 0.16
318.15 K, x1 = 0.4407	843.6 ± 20	2.69 ± 0.14
318.15 K, x1 = 0.5568	855.3 ± 20	2.19 ± 0.11
318.15 K, x1 = 0.6517	866.3 ± 20	1.88 ± 0.1
318.15 K, x1 = 0.7412	878.3 ± 20	1.67 ± 0.08
318.15 K, x1 = 0.8518	895.5 ± 20	1.51 ± 0.08
318.15 K, x1 = 0.9441	912.6 ± 20	1.44 ± 0.07
318.15 K, x1 = 1	924.4 ± 20	1.46 ± 0.07
323.15 K, x1 = 0.0807	813.3 ± 20	4.41 ± 0.22
323.15 K, x1 = 0.1613	818.3 ± 20	3.88 ± 0.2
323.15 K, x1 = 0.2387	823.5 ± 20	3.43 ± 0.17
323.15 K, x1 = 0.3519	832.1 ± 20	2.84 ± 0.14
323.15 K, x1 = 0.4407	839.8 ± 20	2.46 ± 0.12
323.15 K, x1 = 0.5568	851.4 ± 20	2.05 ± 0.1
323.15 K, x1 = 0.6517	862.5 ± 20	1.78 ± 0.09
323.15 K, x1 = 0.7412	874.4 ± 20	1.57 ± 0.08
323.15 K, x1 = 0.8518	891.7 ± 20	1.42 ± 0.07
323.15 K, x1 = 0.9441	908.8 ± 20	1.35 ± 0.07
323.15 K, x1 = 1	920.7 ± 20	1.34 ± 0.07

CCCCCCCCCO [nonan-1-ol] + O=C1CCCCC1
Settings	mass density [kg/m3]	viscosity [mPa·s]
293.15 K, x2 = 0	827.5 ± 20	11.41 ± 0.57
293.15 K, x2 = 0.0813	833.2 ± 20	9.78 ± 0.49
293.15 K, x2 = 0.1582	839 ± 20	8.31 ± 0.42
293.15 K, x2 = 0.2378	845.5 ± 20	6.98 ± 0.35
293.15 K, x2 = 0.3573	856.3 ± 20	5.42 ± 0.27
293.15 K, x2 = 0.4381	864.3 ± 20	4.61 ± 0.23
293.15 K, x2 = 0.5589	877.9 ± 20	3.69 ± 0.19
293.15 K, x2 = 0.6488	889.3 ± 20	3.2 ± 0.16
293.15 K, x2 = 0.724	899.9 ± 20	2.96 ± 0.15
293.15 K, x2 = 0.8481	919.6 ± 20	2.55 ± 0.13
293.15 K, x2 = 0.9411	936.8 ± 20	2.33 ± 0.12
298.15 K, x2 = 0	824 ± 20	9.43 ± 0.47
298.15 K, x2 = 0.0813	829.6 ± 20	8.15 ± 0.41
298.15 K, x2 = 0.1582	835.2 ± 20	6.94 ± 0.35
298.15 K, x2 = 0.2378	841.5 ± 20	5.92 ± 0.3
298.15 K, x2 = 0.3573	852.1 ± 20	4.68 ± 0.24
298.15 K, x2 = 0.4381	860 ± 20	4.01 ± 0.2
298.15 K, x2 = 0.5589	873.3 ± 20	3.21 ± 0.16
298.15 K, x2 = 0.6488	884.6 ± 20	2.8 ± 0.14
298.15 K, x2 = 0.724	895 ± 20	2.59 ± 0.13
298.15 K, x2 = 0.8481	914.4 ± 20	2.24 ± 0.11
298.15 K, x2 = 0.9411	931.2 ± 20	2.11 ± 0.11
303.15 K, x2 = 0	820.5 ± 20	7.86 ± 0.39
303.15 K, x2 = 0.0813	825.9 ± 20	6.78 ± 0.34
303.15 K, x2 = 0.1582	831.5 ± 20	5.87 ± 0.3
303.15 K, x2 = 0.2378	837.7 ± 20	5.03 ± 0.25
303.15 K, x2 = 0.3573	848.1 ± 20	4.03 ± 0.2
303.15 K, x2 = 0.4381	855.9 ± 20	3.49 ± 0.18
303.15 K, x2 = 0.5589	869.1 ± 20	2.87 ± 0.14
303.15 K, x2 = 0.6488	880.2 ± 20	2.53 ± 0.13
303.15 K, x2 = 0.724	890.5 ± 20	2.37 ± 0.12
303.15 K, x2 = 0.8481	909.6 ± 20	2.08 ± 0.11
303.15 K, x2 = 0.9411	926.3 ± 20	1.95 ± 0.1
308.15 K, x2 = 0	817.1 ± 20	6.61 ± 0.33
308.15 K, x2 = 0.0813	822.4 ± 20	5.73 ± 0.29
308.15 K, x2 = 0.1582	827.9 ± 20	4.96 ± 0.25
308.15 K, x2 = 0.2378	834 ± 20	4.31 ± 0.22
308.15 K, x2 = 0.3573	844.3 ± 20	3.51 ± 0.18
308.15 K, x2 = 0.4381	852 ± 20	3.08 ± 0.16
308.15 K, x2 = 0.5589	865 ± 20	2.57 ± 0.13
308.15 K, x2 = 0.6488	876 ± 20	2.3 ± 0.12
308.15 K, x2 = 0.724	886.2 ± 20	2.16 ± 0.11
308.15 K, x2 = 0.8481	905.2 ± 20	1.93 ± 0.1
308.15 K, x2 = 0.9411	921.7 ± 20	1.79 ± 0.09
313.15 K, x2 = 0	813.6 ± 20	5.6 ± 0.28
313.15 K, x2 = 0.0813	818.9 ± 20	4.85 ± 0.24
313.15 K, x2 = 0.1582	824.2 ± 20	4.2 ± 0.21
313.15 K, x2 = 0.2378	830.2 ± 20	3.68 ± 0.19
313.15 K, x2 = 0.3573	840.3 ± 20	3.04 ± 0.15
313.15 K, x2 = 0.4381	847.9 ± 20	2.71 ± 0.14
313.15 K, x2 = 0.5589	860.8 ± 20	2.33 ± 0.12
313.15 K, x2 = 0.6488	871.6 ± 20	2.13 ± 0.11
313.15 K, x2 = 0.724	881.8 ± 20	2.02 ± 0.1
313.15 K, x2 = 0.8481	900.6 ± 20	1.81 ± 0.09
313.15 K, x2 = 0.9411	917.1 ± 20	1.67 ± 0.08
318.15 K, x2 = 0	810.1 ± 20	4.78 ± 0.24
318.15 K, x2 = 0.0813	815.3 ± 20	4.18 ± 0.21
318.15 K, x2 = 0.1582	820.5 ± 20	3.67 ± 0.18
318.15 K, x2 = 0.2378	826.4 ± 20	3.22 ± 0.16
318.15 K, x2 = 0.3573	836.4 ± 20	2.66 ± 0.13
318.15 K, x2 = 0.4381	844 ± 20	2.37 ± 0.12
318.15 K, x2 = 0.5589	856.7 ± 20	2.03 ± 0.1
318.15 K, x2 = 0.6488	867.4 ± 20	1.85 ± 0.09
318.15 K, x2 = 0.724	877.5 ± 20	1.77 ± 0.09
318.15 K, x2 = 0.8481	896.3 ± 20	1.59 ± 0.08
318.15 K, x2 = 0.9411	912.8 ± 20	1.5 ± 0.08
323.15 K, x2 = 0	806.5 ± 20	4.1 ± 0.21
323.15 K, x2 = 0.0813	811.6 ± 20	3.61 ± 0.18
323.15 K, x2 = 0.1582	816.8 ± 20	3.2 ± 0.16
323.15 K, x2 = 0.2378	822.7 ± 20	2.84 ± 0.14
323.15 K, x2 = 0.3573	832.6 ± 20	2.4 ± 0.1
323.15 K, x2 = 0.4381	840.1 ± 20	2.17 ± 0.11
323.15 K, x2 = 0.5589	852.8 ± 20	1.9 ± 0.1
323.15 K, x2 = 0.6488	863.6 ± 20	1.75 ± 0.09
323.15 K, x2 = 0.724	873.7 ± 20	1.67 ± 0.08
323.15 K, x2 = 0.8481	892.5 ± 20	1.49 ± 0.08
323.15 K, x2 = 0.9411	908.9 ± 20	1.4 ± 0.07
